From PMC7138900, “Characterization of MaltOBP1, a Minus-C Odorant-Binding Protein, From the Japanese Pine Sawyer Beetle, Monochamus alternatus Hope (Coleoptera: Cerambycidae)” (Frontiers in Physiology, 2020)
Like-named read-outs stand apart in the source and are kept apart here.

Assays:
[1] = target: T1, recombinant MaltOBP1 (Monochamus alternatus, UniProt A6YIT8); experiment: Competitive ligand-binding assay (1-NPN displacement); conditions: for binding affinity to MaltOBP1 (in words): fluorescence competitive binding; for Ki: Ki = [IC50]/(1 + [1-NPN]/K1-NPN), read-out: Ki (dissociation constant)
T1 sequence (A6YIT8 entry or part of it): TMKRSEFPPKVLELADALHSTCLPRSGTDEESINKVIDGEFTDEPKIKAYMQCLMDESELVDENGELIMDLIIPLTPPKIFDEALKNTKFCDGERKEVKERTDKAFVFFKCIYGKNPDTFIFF
Procedure: (§1) Ligand-binding assays were performed on a HORIBA FluoroMax®-4 Fluorescence spectrophotometer (HORIBA Scientific, United States) with a 1 cm light path quartz cuvette and 5 nm slits for both excitation and emission. The purified MaltOBP1 protein, served in the 1 cm light path quartz cuvette, was titrated with 1 nM 1-N-phenyl naphtylamine (1-NPN, Sigma, Riedstr, Steinheim, Germany) solution in methanol. The fluorescence intensity at the maximum emission wavelength of about 337 nm was linearized using the Scatchard equation ([Sideris et al., 1992]), and then binding affinity for MaltOBP1/1-NPN was calculated.
To assess the binding affinities of ligands to MaltOBP1, a mixture of 1-NPN and MaltOBP1 protein was titrated with 1 μM of each ligand dissolved in methanol. IC50 was obtained by data linearization, and the dissociation constant (Ki) was calculated following the equation: Ki = [IC50]/(1 + [1-NPN]/K1–NPN), where [1-NPN] is the free concentration of 1-NPN and K1–NPN is the dissociation constant of the protein/1-NPN complex ([Campanacci et al., 2001]), which was calculated from the binding curve using GraphPad Prism 5.01 (GraphPad Software, Inc.).

[2] = target: T1, recombinant MaltOBP1; experiment: 1-NPN fluorescence binding assay (Scatchard); conditions: fluorescent probe titration, Scatchard linearization; read-out: dissociation constant of MaltOBP1/1-NPN
Procedure: as §1

[3] = competitive displacement of 1-NPN from MaltOBP1, ligands in methanol, read-out: IC50

Compound | binding affinity to MaltOBP1 (in words) [1] | Kd [2] [µM] | Ki [1] [µM] | IC50 [1, 3] [µM] | IC50 [1] [µM]
CC1=CCC2C(C1)C2(C)C (single isomer, unassigned; (+)) [(+)-3-carene] | no binding affinity | – | – | – | –
c1ccc(Nc2cccc3ccccc23)cc1 [1-NPN, 1-N-phenyl naphtylamine] | – | 3.86 | – | – | –
C=C(C)[C@H]1CC=C(C)CC1 [(R)-(+)-limonene] | high binding affinity | – | 12.8 | 21.7 | –
CC1=CC(=O)[C@H]2C[C@@H]1C2(C)C [(−) -verbenone] | high binding affinity | – | 37.4 | 63.1 | –
C=C1CC/C=C(\C)CC[C@@H]2[C@@H]1CC2(C)C [(−)-trans-caryophyllene] | high binding affinity | – | – | – | 7.01
C=C1[C@H]2CC[C@H](C2)C1(C)C [comphene, Comphene] | no binding affinity | – | – | – | –
C=CC(=C)CCC=C(C)C [myrcene] | no binding affinity | – | – | – | –
C=C1CCC2CC1C2(C)C (stereo not drawn) [β- Pinene] | high binding affinity | – | – | – | 39.3
(+)-α-Pinene | high binding affinity | – | 18.7 | 31.5 | –
